EP0429372A1, “2-Azolyl nicotinate derivatives as herbicides” (RHONE-POULENC AGROCHIMIE, priority 1989, dated 1991)

Tests used:
Assay in all cases: Example B: post-emergence herbicidal application, pot test
Format in all cases: in vivo
[1] = tested on: Echinochloa crusgalli
Excerpt: (§1) Dans des pots de 7 x 7 x 8 cm remplis de terre agricole légère, on sème un nombre de graines déterminé en fonction de l'espèce végétale et de la grosseur de la graine.
(§2) On recouvre ensuite les graines d'une couche de terre d'environ 3 mm d'épaisseur et on laisse germer la graine jusqu'à ce qu'elle donne naissance à une plantule au stade convenable. Le stade de traitement pour les graminées est le stade "deuxième feuille en formation ". Le stade de traitement pour les dicotylédones, est le stade "cotylédons étalés, première feuille vraie en développement".
(§3) Les pots sont alors traités par pulvérisation de bouillie en quantité correspondant à une dose volumique d'application de 500 l/ha et contenant la matière active à la concentration désirée.
(§4) La bouille a été préparée de la même manière qu'à l'exemple A.
(§5) Les pots traités sont ensuite placés dans des bacs destinés à recevoir l'eau d'arrosage, en subirrigation, et maintenus pendant 24 jours à température ambiante sous 70 % d'humidité relative.
(§6) Au bout de 24 jours, on mesure un pourcentage (D) de destruction du nombre de pieds dans le pot traité par rapport au nombre de plantes dans les pots non traités (témoin). On mesure, sur les plantes traitées restantes, le pourcentage de réduction de taille (RT) par rapport aux plantes témoin.
(§7) Le pourcentage du volume foliaire non détruit par le produit est donc donné par la formule : [formula]
(§8) Cette valeur A est transformée en notation de 0 à 5 selon l'échelle suivante :
(§9) Les résultats obtenus sont présentés après le tableau A pour des doses d'application de 4000 g/ha.

[2] = tested on: Ipomea purpurea
Excerpt: as §1, §2, §3, §4, §5, §6, §7, §8, §9

[3] = tested on: Sinapis alba
Excerpt: as §1, §2, §3, §4, §5, §6, §7, §8, §9

[4] = tested on: Digitaria sanguinalis; settings: 4000 g/ha, 576 h
Excerpt: as §1, §2, §3, §4, §5, §6, §7, §8, §9

[5] = tested on: Solanum nigrum; settings: 4000 g/ha, 576 h
Excerpt: as §1, §2, §3, §4, §5, §6, §7, §8, §9

[6] = tested on: Lolium multiflorum
Excerpt: as §1, §2, §3, §4, §5, §6, §7, §8, §9

[7] = 4 kg/ha, rated after 24 days, score 0-5 from % leaf volume not destroyed

| Structure (SMILES) | ACTIVITE DE POST-LEVEE ECH ([1]; 4000 g/ha, 576 h) | ACTIVITE DE POST-LEVEE IPO ([2]; 4000 g/ha, 576 h) | ACTIVITE DE POST-LEVEE SIN ([3]; 4000 g/ha, 576 h) | ACTIVITE DE POST-LEVEE DIG [4] | ACTIVITE DE POST-LEVEE SOL [5] | ACTIVITE DE POST-LEVEE LOL ([6]; 4000 g/ha, 576 h) | ACTIVITE DE POST-LEVEE LOL [6, 7] | ACTIVITE DE POST-LEVEE ECH [1, 7] | ACTIVITE DE POST-LEVEE IPO [2, 7] | ACTIVITE DE POST-LEVEE SIN [3, 7] |
| --- | --- | --- | --- | --- | --- | --- | --- | --- | --- | --- |
| CN(C)S(=O)(=O)n1c(-c2ncccc2C(=O)O)nc2ccccc21 [compound 121] | 3 (30 à 50) | 4 (10 à 30) | 5 (O à 10) | 0 (90 à 100) | 5 (O à 10) | – | – | – | – | – |
| CN(C)S(=O)(=O)n1nc(-c2ccc(Cl)cc2Cl)nc1-c1ncccc1C(=O)O [compound 3] | 0 (90 à 100) | 2 (50 à 70) | 2 (50 à 70) | 0 (90 à 100) | 3 (30 à 50) | 0 (90 à 100) | – | – | – | – |
| O=C(O)c1cccnc1-c1n[nH]c(C=Cc2ccccc2)n1 [compound 67] | 0 (90 à 100) | 3 (30 à 50) | 2 (50 à 70) | 2 (50 à 70) | 2 (50 à 70) | 0 (90 à 100) | – | – | – | – |
| CN(C)S(=O)(=O)n1nc(C(C)(C)C)nc1-c1ncccc1C(=O)O [compound 12] | 0 (90 à 100) | 3 (30 à 50) | 4 (10 à 30) | 0 (90 à 100) | 4 (10 à 30) | 0 (90 à 100) | – | – | – | – |
| Cc1ccccc1-c1nc(-c2ncccc2C(=O)O)n[nH]1 [compound 54] | 2 (50 à 70) | 0 (90 à 100) | 1 (70 à 90) | 3 (30 à 50) | 3 (30 à 50) | 3 (30 à 50) | – | – | – | – |
| O=C(O)c1cccnc1-c1n[nH]c(-c2cc(Cl)cc(Cl)c2)n1 [compound 50] | 3 (30 à 50) | 3 (30 à 50) | 0 (90 à 100) | 2 (50 à 70) | 0 (90 à 100) | 0 (90 à 100) | – | – | – | – |
| O=C(O)c1cccnc1-c1n[nH]c(-c2ccccc2)n1 [compound 42, 3 - (3 - carboxy 2 - pyridyl) 5 - phényl 1,2,4 - triazole] | – | – | – | – | – | – | 1 (70 à 90) | 2 (50 à 70) | 4 (10 à 30) | 4 (10 à 30) |
| O=C(O)c1cccnc1-c1n[nH]c(-c2sc(Cl)c(Cl)c2Cl)n1 [compound 44] | 2 (50 à 70) | 3 (30 à 50) | 4 (10 à 30) | 1 (70 à 90) | 1 (70 à 90) | 0 (90 à 100) | – | – | – | – |
